According to patent US20110076293A1, “TRIPTOLIDE DERIVATIVES FOR MODULATION OF APOPTOSIS AND IMMUNOSUPPRESSION” (priority 2002, published 2011):

Legend:
[1] = tested on: IL-2 production in Jurkat human T lymphocyte cells; assay: IL-2 production assay for activity of compounds incubated with human serum
in vitro = details: incomplete conversion to triptolide, 48 hr incubation
Description: Compounds of formula I, as shown in Table 1 above and in the Examples, were assayed for their capacity to induce apoptosis in cells from the Jurkat human T lymphocyte cell line, after incubation with pooled human serum for varying periods of time at 37° C. (see Example 19). An ester prodrug, triptolide-14-succinate, designated PG490-88, was included for comparison. The extent of conversion to triptolide after such incubation was also independently determined by HPLC analysis.
Prodrug conversions to triptolide as determined independently by HPLC are given in […].

[2] = Table 7, Jurkat cells (48 hrs), 0.001 nM
[3] = Table 7, Jurkat cells (48 hrs), 0.01 nM
[4] = Table 7, Jurkat cells (48 hrs), 0.1 nM
[5] = Table 7, Jurkat cells (48 hrs), 1 nM
[6] = Table 7, Jurkat cells (48 hrs), 10 nM
[7] = Table 7, Jurkat cells (48 hrs), 100 nM
[8] = Table 7, Jurkat cells (48 hrs), 1000 nM
[9] = Table 7, Jurkat cells (48 hrs), 10000 nM
[10] = Table 8, Jurkat cells, 0.0001 nM
[11] = Table 8, Jurkat cells, 0.001 nM
[12] = Table 8, Jurkat cells, 10000 nM

SMILES | IL-2 pg/mL at given concentration (nM) [1, 2] [pg/mL] | IL-2 pg/mL at given concentration (nM) [1, 3] [pg/mL] | IL-2 pg/mL at given concentration (nM) [1, 4] [pg/mL] | IL-2 pg/mL at given concentration (nM) [1, 5] [pg/mL] | IL-2 pg/mL at given concentration (nM) [1, 6] [pg/mL] | IL-2 pg/mL at given concentration (nM) [1, 7] [pg/mL] | IL-2 pg/mL at given concentration (nM) [1, 8] [pg/mL] | IL-2 pg/mL at given concentration (nM) [1, 9] [pg/mL] | IL-2 pg/mL at given concentration (nM) [1, 10] [pg/mL] | IL-2 pg/mL at given concentration (nM) [1, 11] [pg/mL] | IL-2 pg/mL at given concentration (nM) ([1]; Table 8, Jurkat cells, 0.01 nM) [pg/mL] | IL-2 pg/mL at given concentration (nM) ([1]; Table 8, Jurkat cells, 0.1 nM) [pg/mL] | IL-2 pg/mL at given concentration (nM) ([1]; Table 8, Jurkat cells, 1 nM) [pg/mL] | IL-2 pg/mL at given concentration (nM) ([1]; Table 8, Jurkat cells, 10 nM) [pg/mL] | IL-2 pg/mL at given concentration (nM) ([1]; Table 8, Jurkat cells, 100 nM) [pg/mL] | IL-2 pg/mL at given concentration (nM) ([1]; Table 8, Jurkat cells, 1000 nM) [pg/mL] | IL-2 pg/mL at given concentration (nM) [1, 12] [pg/mL] | other results
CC(C)[C@]12O[C@H]1[C@@H]1O[C@]13[C@]1(O[C@H]1C[C@H]1C4=C(CC[C@@]13C)C(=O)OC4)[C@@H]2O [PG490, Triptolide] | 929.7 | 908.6 | 937.8 | 835.2 | 556.1 | 120.7 | 62.9 | 59.2 | 80.0 | 97.2 | 83.2 | 87.1 | 75.7 | 25.5 | 17.8 | 12.9 | 22.3 | –
CCNC(=O)O[C@@H]1[C@@]2(C(C)C)O[C@H]2[C@@H]2O[C@]23[C@]12O[C@H]2C[C@H]1C2=C(CC[C@@]13C)C(=O)OC2 [PG666, Triptolide 14-Ethyl Carbamate] | 844.6 | 799.8 | 860.6 | 773.0 | 819.1 | 528.0 | 180.1 | 63.5 | 94.3 | 105.1 | 97.0 | 92.8 | 80.0 | 89.8 | 33.3 | 10.0 | 8.0 | concentration for equal IL-2 inhibitory activity relative to the active concentration of PG490 [1]: 10-30 times; bioactivity in IL-2 inhibition assays (in words) ([1]; FIGS. 4-5): some level of bioactivity
CC(C)[C@]12O[C@H]1[C@@H]1O[C@]13[C@]1(O[C@H]1C[C@H]1C4=C(CC[C@@]13C)C(=O)OC4)[C@@H]2OC(=O)CCC(=O)O [PG490-88, triptolide-14-succinate, reference compound] | 776.4 | 771.0 | 809.5 | 732.4 | 605.1 | 317.5 | 65.9 | 58.2 | 96.1 | 83.0 | 87.5 | 86.3 | 88.2 | 42.7 | 14.0 | 8.4 | 23.8 | IC50 ([1]; IL-2 production in Jurkat cells after incubation with pooled human serum for 48 hours at 37° C.): 9 nM; Conversion (%) ([1]; percent of the IC50 value produced by triptolide (PG490) in the same experiment, human serum 48 hours): 51%; max. conversion at 48 hr in human plasma by HPLC (in vitro): max. 26%
